From PubChem BioAssay (NCI)
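Compound exposure: 48 hours, 5 concentrations, 96-well plates. The concentration for 50% growth inhibition is given as GI50. The concentration for full growth arrest is given as TGI.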 *1 amine or outer side, *2 acyl side, *3 side chain or, on linkers, in order; H or OH if unused. Where a SMILES comes first, the peptide text is derived from it. [ ]: non-standard residue; d: D form. X33 = C=CCC(O[*:1])C(=O)[*:2]; NMeV = CN[CH](C(=O)O)C(C)C; NMeA = CN[CH](C)C(=O)O; βAla = NCCC(=O)O

What was measured:
Assay in all cases: DTP human tumour cell line panel, 48 h
SK-OV-3 ovarian = tested on: SK-OV-3 ovarian
HOP-62 NSCLC = tested on: HOP-62 NSCLC
ACHN renal = tested on: ACHN renal
SF-268 CNS = tested on: SF-268 CNS
SK-MEL-28 melanoma = tested on: SK-MEL-28 melanoma
SW-620 colon = tested on: SW-620 colon
KM12 colon = tested on: KM12 colon
UACC-62 melanoma = tested on: UACC-62 melanoma
HCT-15 colon = tested on: HCT-15 colon
MCF7 breast = tested on: MCF7 breast
OVCAR-4 ovarian = tested on: OVCAR-4 ovarian

Compound	TGI (SK-OV-3 ovarian)	TGI (HOP-62 NSCLC)	TGI (ACHN renal)	TGI (SF-268 CNS)	TGI (SK-MEL-28 melanoma)	TGI (SW-620 colon)	TGI (KM12 colon)	TGI (UACC-62 melanoma)	TGI (HCT-15 colon)	TGI (MCF7 breast)	TGI (OVCAR-4 ovarian)	GI50 (UACC-62 melanoma)	GI50 (SK-OV-3 ovarian)	GI50 (HOP-62 NSCLC)	GI50 (ACHN renal)	GI50 (SF-268 CNS)	GI50 (HCT-15 colon)	GI50 (SK-MEL-28 melanoma)	GI50 (SW-620 colon)	GI50 (MCF7 breast)
CC(c1ccccc1)/[N+]([O-])=C/c1ccccc1 (configuration not stated)	> 100 µM	> 100 µM	> 100 µM	> 100 µM	> 100 µM	> 100 µM	> 100 µM	–	–	–	–	–	–	–	–	–	–	–	–	–
Nc1nc(N)c2[nH]cnc2n1 (tested in a mixture with another compound)	> 100 µM	> 100 µM	48.6 µM	> 100 µM	> 100 µM	> 100 µM	> 100 µM	24.9 µM	> 100 µM	21.7 µM	> 100 µM	–	–	–	–	–	–	–	–	–
C=CCC1OC(=O)CCNC(=O)C(C)N(C)C(=O)C(C(C)C)N(C)C(=O)C(C(C)CC)NC(=O)C2CCCN2C1=O (configuration not stated) (cyclo([X33]PI[NMeV][NMeA][βAla]); configuration not given here)	–	> 100 µM	> 100 µM	> 100 µM	> 100 µM	> 100 µM	> 100 µM	7.43 µM	> 100 µM	> 100 µM	> 100 µM	–	–	–	–	–	–	–	–	–
Cc1ccc2c(C)c3ccc4ccccc4c3c[n+]2c1	> 87.2 µM	51.2 µM	> 100 µM	14.8 µM	33 µM	> 82.1 µM	14.6 µM	27.4 µM	> 100 µM	–	45.4 µM	–	–	–	–	–	–	–	–	–
C/C(=N\NC(=S)Nc1ccc(C)cc1)c1nc2ncccc2[nH]1	58.3 µM	39.2 µM	14.3 µM	35.7 µM	18.4 µM	24 µM	32 µM	15 µM	19.4 µM	13.5 µM	16.7 µM	–	–	–	–	–	–	–	–	–
CC1OC1C(=O)C1(O)C(C)C(O)C23OC2(C(O)c2c(O)cccc2C3=O)C1O (configuration not stated)	0.532 µM	0.462 µM	–	0.525 µM	0.682 µM	1.21 µM	1.04 µM	0.646 µM	0.926 µM	2.01 µM	0.0982 µM	–	–	–	–	–	–	–	–	–
CCSc1nc(=[N+]2CCCC2)ss1	> 100 µM	> 100 µM	> 100 µM	> 100 µM	> 100 µM	> 100 µM	> 100 µM	23.9 µM	> 92.8 µM	41.1 µM	> 100 µM	–	–	–	–	–	–	–	–	–
COc1ccc(-c2c3c(nc4nc(SC)nc(SC)c24)CCCC3)cc1OC	> 100 µM	> 100 µM	> 100 µM	> 100 µM	> 100 µM	> 100 µM	> 100 µM	> 100 µM	> 100 µM	> 100 µM	–	–	–	–	–	–	–	–	–	–
C[C@]12CCc3sc(Nc4ccc(O)cc4)nc3C1=CC[C@@H]1[C@@H]2CC[C@]2(C)C(=O)CC[C@@H]12	> 100 µM	12.6 µM	9.29 µM	> 100 µM	4.75 µM	4.73 µM	–	4.02 µM	4.4 µM	4.26 µM	–	1.76 µM	12.3 µM	3.28 µM	2.92 µM	3.37 µM	1.66 µM	2.08 µM	2.08 µM	1.66 µM
CN1CCN(c2cc(-c3cc4ccccc4o3)oc(=O)c2C#N)CC1	–	–	> 100 µM	> 100 µM	> 100 µM	> 100 µM	> 100 µM	–	> 100 µM	–	> 100 µM	–	–	–	–	–	–	–	–	–
CCOP(=O)(CN=C(c1ccccc1)c1ccccc1)OCC	> 100 µM	> 100 µM	> 100 µM	–	> 100 µM	> 100 µM	–	–	> 100 µM	> 100 µM	> 100 µM	–	–	–	–	–	–	–	–	–
O=C(NN1C(=O)CSC1c1ccc(C(F)(F)F)cc1)c1ccncc1 (configuration not stated)	> 100 µM	> 100 µM	–	> 100 µM	> 100 µM	> 100 µM	> 100 µM	> 100 µM	> 100 µM	> 100 µM	> 100 µM	–	–	–	–	–	–	–	–	–
NC(=S)N/N=C1\c2ccccc2CCC1CCC1(O)CCc2ccccc2C1=O (configuration not stated)	> 100 µM	> 100 µM	> 100 µM	> 100 µM	45.8 µM	> 100 µM	> 100 µM	31.7 µM	> 100 µM	46.4 µM	> 100 µM	–	–	–	–	–	–	–	–	–
O=C1OCC/C1=C/c1ccc(N=Nc2c(O)ccc3ccccc23)cc1	55.3 µM	45.8 µM	31.8 µM	44.7 µM	38.4 µM	40 µM	22.3 µM	56.5 µM	60.7 µM	> 100 µM	37.4 µM	–	–	–	–	–	–	–	–	–
Cc1ccc(Nc2nc(NS(=O)(=O)c3cc(C(=O)Nc4ccc(Cl)cc4)c(Cl)cc3S)n[nH]2)cc1	> 100 µM	> 100 µM	> 100 µM	> 100 µM	> 100 µM	> 100 µM	> 100 µM	> 100 µM	> 100 µM	> 100 µM	> 100 µM	–	–	–	–	–	–	–	–	–
CCc1nnc(-c2nsc3ccccc23)s1	–	> 100 µM	> 100 µM	> 100 µM	> 100 µM	> 100 µM	> 100 µM	> 100 µM	> 100 µM	–	> 100 µM	–	–	–	–	–	–	–	–	–
CC(CCC(=O)O)C1CCC2C3C(O)CC4CC(O)CCC4(C)C3CC(O)C12C (configuration not stated)	> 100 µM	> 100 µM	> 100 µM	> 100 µM	> 100 µM	> 100 µM	> 100 µM	> 100 µM	> 100 µM	> 100 µM	> 100 µM	–	–	–	–	–	–	–	–	–
COC1=CC(=O)c2c(O)c3c(c(O)c2C1=O)C=C(C)OC3O (configuration not stated)	23.7 µM	7.04 µM	6.89 µM	5.86 µM	3.65 µM	2.84 µM	12.2 µM	1.85 µM	2.07 µM	1.57 µM	4.39 µM	–	–	–	–	–	–	–	–	–
